Measurements: patent US10670605B2, “Cysteine reactive probes and uses thereof” (The Scripps Research Institute, priority 2015, dated 2020)
Blank lines part the entries; values can stand above or below the compound they belong to.

What was measured:
Test in all cases: Competitive isoTOP-ABPP in situ (fragment-treated cells)
Format in all cases: cell-based
[1] = target: T1, cysteines in MDA-MB-231 and Ramos cells (Homo sapiens, UniProt Q2NL82)
T1 sequence (Q2NL82 1-804): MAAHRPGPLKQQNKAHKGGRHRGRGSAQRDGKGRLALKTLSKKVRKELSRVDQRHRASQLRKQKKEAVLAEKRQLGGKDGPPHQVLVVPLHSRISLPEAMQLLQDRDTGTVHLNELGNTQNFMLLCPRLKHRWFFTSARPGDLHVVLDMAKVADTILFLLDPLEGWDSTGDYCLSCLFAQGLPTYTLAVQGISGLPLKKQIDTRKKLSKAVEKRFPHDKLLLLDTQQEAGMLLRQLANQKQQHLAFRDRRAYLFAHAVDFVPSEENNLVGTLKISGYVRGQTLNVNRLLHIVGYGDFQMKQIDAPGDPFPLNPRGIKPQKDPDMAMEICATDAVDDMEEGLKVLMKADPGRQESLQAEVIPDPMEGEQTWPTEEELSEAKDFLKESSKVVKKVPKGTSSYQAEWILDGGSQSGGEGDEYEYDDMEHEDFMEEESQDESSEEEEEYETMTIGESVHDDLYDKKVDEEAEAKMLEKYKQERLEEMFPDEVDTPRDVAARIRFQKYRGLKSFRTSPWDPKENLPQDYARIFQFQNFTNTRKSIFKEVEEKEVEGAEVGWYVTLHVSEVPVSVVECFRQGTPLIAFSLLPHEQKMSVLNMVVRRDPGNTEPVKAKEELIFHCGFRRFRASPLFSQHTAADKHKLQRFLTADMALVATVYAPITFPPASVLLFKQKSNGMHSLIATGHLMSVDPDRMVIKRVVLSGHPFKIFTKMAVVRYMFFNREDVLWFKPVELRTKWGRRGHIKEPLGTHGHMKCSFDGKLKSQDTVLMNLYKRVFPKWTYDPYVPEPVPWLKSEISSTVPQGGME

[2] = target: T2, cysteines in MDA-MB-231 and Ramos cells (Homo sapiens, UniProt Q9NRW3)
T2 sequence (Q9NRW3 1-190): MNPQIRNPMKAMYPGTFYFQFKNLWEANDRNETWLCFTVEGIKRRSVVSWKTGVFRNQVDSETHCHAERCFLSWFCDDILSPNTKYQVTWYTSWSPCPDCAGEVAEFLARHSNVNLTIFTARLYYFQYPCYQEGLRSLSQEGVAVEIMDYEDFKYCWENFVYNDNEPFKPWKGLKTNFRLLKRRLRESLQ

[3] = target: T3, cysteines in MDA-MB-231 and Ramos cells (Homo sapiens, UniProt P29590)
T3 sequence (P29590 1-882): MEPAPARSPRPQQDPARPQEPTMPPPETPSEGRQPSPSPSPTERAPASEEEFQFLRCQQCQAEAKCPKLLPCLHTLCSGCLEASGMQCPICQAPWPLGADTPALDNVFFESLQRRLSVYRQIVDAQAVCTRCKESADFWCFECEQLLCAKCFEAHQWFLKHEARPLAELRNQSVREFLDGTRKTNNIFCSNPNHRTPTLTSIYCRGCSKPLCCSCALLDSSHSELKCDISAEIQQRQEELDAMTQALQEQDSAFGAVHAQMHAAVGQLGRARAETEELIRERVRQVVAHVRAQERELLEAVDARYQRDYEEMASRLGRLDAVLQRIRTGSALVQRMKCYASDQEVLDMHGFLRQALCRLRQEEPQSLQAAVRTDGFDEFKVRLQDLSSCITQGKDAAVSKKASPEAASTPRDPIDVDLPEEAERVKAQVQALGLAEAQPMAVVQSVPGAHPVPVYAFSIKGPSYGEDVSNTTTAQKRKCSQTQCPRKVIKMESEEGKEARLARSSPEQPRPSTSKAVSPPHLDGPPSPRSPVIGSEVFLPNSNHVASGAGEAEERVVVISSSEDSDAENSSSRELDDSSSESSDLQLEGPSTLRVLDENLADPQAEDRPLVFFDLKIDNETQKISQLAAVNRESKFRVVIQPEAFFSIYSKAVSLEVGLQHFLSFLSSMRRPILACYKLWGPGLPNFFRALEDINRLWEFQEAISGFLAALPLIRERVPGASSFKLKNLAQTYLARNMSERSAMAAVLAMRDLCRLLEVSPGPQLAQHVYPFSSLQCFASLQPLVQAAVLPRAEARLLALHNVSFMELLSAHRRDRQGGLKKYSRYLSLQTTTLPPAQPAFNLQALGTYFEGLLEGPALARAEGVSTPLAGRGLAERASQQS

[4] = target: cysteines in MDA-MB-231 and Ramos cells (Homo sapiens, UniProt O14980)
Chain of cysteines in MDA-MB-231 and Ramos cells (Homo sapiens, UniProt O14980) (O14980 whole entry): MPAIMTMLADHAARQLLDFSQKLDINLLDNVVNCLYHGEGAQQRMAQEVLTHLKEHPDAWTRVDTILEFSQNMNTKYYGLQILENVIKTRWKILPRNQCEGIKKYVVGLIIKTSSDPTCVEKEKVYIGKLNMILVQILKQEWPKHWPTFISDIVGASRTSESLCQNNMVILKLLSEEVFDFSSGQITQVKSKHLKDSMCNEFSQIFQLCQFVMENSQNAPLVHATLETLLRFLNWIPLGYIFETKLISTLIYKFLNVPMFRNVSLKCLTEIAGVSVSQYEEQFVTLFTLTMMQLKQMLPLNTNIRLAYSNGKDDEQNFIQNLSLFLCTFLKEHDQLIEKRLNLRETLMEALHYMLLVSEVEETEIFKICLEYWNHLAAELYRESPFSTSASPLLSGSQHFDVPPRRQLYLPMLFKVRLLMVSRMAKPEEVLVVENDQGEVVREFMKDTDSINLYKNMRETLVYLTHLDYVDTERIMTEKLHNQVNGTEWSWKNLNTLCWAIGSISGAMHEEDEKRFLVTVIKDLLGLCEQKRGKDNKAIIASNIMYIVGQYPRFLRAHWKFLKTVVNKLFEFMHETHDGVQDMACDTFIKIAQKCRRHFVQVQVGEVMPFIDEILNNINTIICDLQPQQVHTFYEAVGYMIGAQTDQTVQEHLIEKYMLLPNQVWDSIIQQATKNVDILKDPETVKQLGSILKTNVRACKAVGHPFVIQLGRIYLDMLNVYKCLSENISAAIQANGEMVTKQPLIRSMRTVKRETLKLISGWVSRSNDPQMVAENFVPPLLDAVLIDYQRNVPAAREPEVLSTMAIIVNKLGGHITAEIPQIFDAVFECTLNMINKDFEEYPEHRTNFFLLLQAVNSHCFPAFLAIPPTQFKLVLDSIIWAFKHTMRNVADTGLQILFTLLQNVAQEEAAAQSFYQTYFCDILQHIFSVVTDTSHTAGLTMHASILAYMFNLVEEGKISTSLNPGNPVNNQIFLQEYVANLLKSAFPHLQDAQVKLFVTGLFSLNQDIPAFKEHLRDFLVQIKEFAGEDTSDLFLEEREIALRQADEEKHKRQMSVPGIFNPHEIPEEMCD

[5] = target: cysteines in MDA-MB-231 and Ramos cells (Homo sapiens, UniProt Q00765)
Chain of cysteines in MDA-MB-231 and Ramos cells (Homo sapiens, UniProt Q00765) (Q00765 whole entry): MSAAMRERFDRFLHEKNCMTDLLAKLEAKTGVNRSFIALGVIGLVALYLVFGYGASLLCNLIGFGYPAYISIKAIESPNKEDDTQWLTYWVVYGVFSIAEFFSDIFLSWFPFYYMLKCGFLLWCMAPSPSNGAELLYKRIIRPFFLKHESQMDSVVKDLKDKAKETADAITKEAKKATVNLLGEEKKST

[6] = target: T4, cysteines in MDA-MB-231 and Ramos cells (Homo sapiens, UniProt Q15345)
T4 sequence (Q15345 1-812): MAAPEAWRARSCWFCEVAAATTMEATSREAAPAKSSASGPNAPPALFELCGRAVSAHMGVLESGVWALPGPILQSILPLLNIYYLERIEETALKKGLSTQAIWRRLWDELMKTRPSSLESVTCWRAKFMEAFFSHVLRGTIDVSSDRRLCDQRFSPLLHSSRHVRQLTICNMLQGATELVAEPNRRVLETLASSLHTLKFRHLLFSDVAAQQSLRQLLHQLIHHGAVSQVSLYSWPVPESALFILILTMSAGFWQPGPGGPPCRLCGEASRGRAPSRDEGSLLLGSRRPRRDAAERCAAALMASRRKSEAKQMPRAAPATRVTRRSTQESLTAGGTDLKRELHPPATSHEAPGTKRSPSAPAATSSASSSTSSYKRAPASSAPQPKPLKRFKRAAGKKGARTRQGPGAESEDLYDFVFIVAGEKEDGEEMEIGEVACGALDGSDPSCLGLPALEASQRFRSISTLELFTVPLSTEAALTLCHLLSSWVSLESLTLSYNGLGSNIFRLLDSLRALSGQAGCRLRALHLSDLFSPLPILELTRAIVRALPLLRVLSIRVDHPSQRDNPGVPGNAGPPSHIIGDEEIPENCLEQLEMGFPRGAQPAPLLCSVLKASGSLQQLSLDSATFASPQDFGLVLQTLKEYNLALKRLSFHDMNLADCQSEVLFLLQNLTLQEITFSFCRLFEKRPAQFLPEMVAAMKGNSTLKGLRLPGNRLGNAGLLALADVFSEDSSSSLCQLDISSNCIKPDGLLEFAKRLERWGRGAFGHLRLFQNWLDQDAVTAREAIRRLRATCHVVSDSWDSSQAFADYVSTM

[7] = target: cysteines in MDA-MB-231 and Ramos cells (Homo sapiens, UniProt Q14980); conditions: 200 μM, insitu, 231
Chain of cysteines in MDA-MB-231 and Ramos cells (Homo sapiens, UniProt Q14980) (Q14980 whole entry): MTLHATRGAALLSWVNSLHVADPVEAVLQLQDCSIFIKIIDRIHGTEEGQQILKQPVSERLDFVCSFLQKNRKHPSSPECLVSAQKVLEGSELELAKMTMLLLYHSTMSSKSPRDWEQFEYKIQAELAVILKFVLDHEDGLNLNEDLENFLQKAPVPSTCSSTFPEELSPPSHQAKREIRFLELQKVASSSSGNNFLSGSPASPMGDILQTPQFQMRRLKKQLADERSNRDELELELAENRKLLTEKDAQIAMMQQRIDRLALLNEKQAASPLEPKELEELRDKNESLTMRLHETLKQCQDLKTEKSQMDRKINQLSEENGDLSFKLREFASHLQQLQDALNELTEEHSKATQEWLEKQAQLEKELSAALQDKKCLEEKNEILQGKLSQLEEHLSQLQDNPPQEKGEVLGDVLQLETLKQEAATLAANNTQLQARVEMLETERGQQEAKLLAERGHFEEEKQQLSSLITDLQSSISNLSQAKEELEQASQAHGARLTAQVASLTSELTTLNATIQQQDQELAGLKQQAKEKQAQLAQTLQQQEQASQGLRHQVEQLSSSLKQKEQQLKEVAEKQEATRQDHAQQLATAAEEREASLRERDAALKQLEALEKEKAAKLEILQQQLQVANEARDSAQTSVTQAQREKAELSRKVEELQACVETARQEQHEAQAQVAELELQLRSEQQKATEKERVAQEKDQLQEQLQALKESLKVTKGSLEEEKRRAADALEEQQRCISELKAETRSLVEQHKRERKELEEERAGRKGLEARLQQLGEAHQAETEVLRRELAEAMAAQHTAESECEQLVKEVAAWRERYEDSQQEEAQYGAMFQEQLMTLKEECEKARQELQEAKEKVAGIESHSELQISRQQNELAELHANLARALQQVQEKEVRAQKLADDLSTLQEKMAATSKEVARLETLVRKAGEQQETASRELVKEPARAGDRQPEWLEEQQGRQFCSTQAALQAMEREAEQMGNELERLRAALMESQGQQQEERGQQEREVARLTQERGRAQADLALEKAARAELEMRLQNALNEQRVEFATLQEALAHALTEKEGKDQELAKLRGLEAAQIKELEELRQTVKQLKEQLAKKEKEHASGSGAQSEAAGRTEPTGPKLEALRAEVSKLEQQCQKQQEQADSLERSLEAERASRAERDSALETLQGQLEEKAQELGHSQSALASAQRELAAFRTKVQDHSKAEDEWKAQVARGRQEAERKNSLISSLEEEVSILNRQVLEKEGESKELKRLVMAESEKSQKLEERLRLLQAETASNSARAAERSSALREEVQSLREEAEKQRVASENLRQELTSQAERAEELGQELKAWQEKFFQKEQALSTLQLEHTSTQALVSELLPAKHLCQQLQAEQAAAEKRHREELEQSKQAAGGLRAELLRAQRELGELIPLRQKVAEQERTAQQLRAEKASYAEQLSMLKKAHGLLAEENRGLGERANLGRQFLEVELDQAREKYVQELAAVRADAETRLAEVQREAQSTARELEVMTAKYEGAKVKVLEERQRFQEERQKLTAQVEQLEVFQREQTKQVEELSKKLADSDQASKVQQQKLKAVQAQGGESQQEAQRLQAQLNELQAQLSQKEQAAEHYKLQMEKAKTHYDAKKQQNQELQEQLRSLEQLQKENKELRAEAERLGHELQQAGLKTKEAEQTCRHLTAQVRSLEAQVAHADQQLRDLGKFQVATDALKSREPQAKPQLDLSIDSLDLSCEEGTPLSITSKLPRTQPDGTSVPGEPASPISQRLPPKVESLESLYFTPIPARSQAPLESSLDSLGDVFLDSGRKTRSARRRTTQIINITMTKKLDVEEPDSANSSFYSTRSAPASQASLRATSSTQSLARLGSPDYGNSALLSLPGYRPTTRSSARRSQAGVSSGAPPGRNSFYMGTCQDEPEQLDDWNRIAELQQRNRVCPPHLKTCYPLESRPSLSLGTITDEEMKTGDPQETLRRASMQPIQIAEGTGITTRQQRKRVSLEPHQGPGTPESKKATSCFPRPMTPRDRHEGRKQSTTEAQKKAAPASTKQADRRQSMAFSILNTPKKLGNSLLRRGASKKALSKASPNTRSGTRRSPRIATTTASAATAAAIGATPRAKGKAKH

Compound: COc1ccc2c(c1)CCCN2C(=O)CCl [compound 2]
isoTOP-ABPP reactivity Q2NL82_C126 TSR1 ([1]; 200 μM, insitu, 231): 20.0
isoTOP-ABPP reactivity Q9NRW3_C130 APOBEC3C ([2]; 200 μM, insitu, 231): 20.0
isoTOP-ABPP reactivity P29590_C389 PML ([3]; 200 μM, insitu, 231): 15.6
isoTOP-ABPP reactivity O14980_0528 XPO1 ([4]; 200 μM, insitu, 231): 20.0

Compound: COc1ccc(C2CC(c3cccs3)=NN2C(=O)CCl)cc1 (stereo not drawn) [compound 4]
isoTOP-ABPP reactivity Q2NL82_C126 TSR1 ([1]; 100 μM in situ 231): 13.8
isoTOP-ABPP reactivity Q00765_018 REEP5 ([5]; 100 μM in situ 231): 20.0
isoTOP-ABPP reactivity Q9NRW3_C130 APOBEC3C ([2]; 100 μM in situ 231): 20.0
isoTOP-ABPP reactivity O14980_0528 XPO1 ([4]; 100 μM in situ 231): 1.9

Compound: Cn1cc(S(=O)(=O)N2CCOCC2)cc1C(=O)NC(=O)CCl [compound 11]
isoTOP-ABPP ratio Q00765_C18 ([5]; 100 μM in situ 231): 0.8
isoTOP-ABPP ratio, cysteine Q15345_C297 ([6]; 100 μM in situ 231): 1.1
isoTOP-ABPP ratio P29590_C389 ([3]; 100 μM in situ 231): 0.5
isoTOP-ABPP ratio O14980_C528 ([4]; 100 μM in situ 231): 0.7

Compound: O=C(CCl)NC(=O)NC12CC3CC(CC(C3)C1)C2 [compound 12]
isoTOP-ABPP ratio, cysteine Q2NL82_C126 ([1]; 200 μM, insitu, 231): 20.0
isoTOP-ABPP ratio, cysteine Q14980_C961 [7]: 20.0
isoTOP-ABPP ratio Q00765_C18 ([5]; 200 μM, insitu, 231): 20.0

Compound: O=C(CCl)NCCc1c[nH]c2ccccc12 [compound 13]
isoTOP-ABPP ratio, cysteine Q14980_C961 [7]: 2.2
isoTOP-ABPP ratio Q00765_C18 ([5]; 200 μM, insitu, 231): 1.2
isoTOP-ABPP ratio, cysteine Q15345_C297 ([6]; 200 μM, insitu, 231): 1.6
isoTOP-ABPP ratio P29590_C389 ([3]; 200 μM, insitu, 231): 1.3
isoTOP-ABPP ratio O14980_C528 ([4]; 200 μM, insitu, 231): 1.1
isoTOP-ABPP ratio O14980_C528 ([4]; 200 μM, insitu, ramos): 1.1

Compound: O=C(CCl)NC12CC3CC(CC(C3)C1)C2 [compound 21]
isoTOP-ABPP ratio, cysteine Q2NL82_C126 ([1]; 200 μM, insitu, 231): 1.5
isoTOP-ABPP ratio, cysteine Q14980_C961 [7]: 3.7
isoTOP-ABPP ratio Q00765_C18 ([5]; 200 μM, insitu, 231): 0.7
isoTOP-ABPP ratio, cysteine Q15345_C297 ([6]; 200 μM, insitu, 231): 1.1
isoTOP-ABPP ratio, cysteine Q9NRW3_C130 ([2]; 200 μM, insitu, 231): 1.3
isoTOP-ABPP ratio P29590_C389 ([3]; 200 μM, insitu, 231): 20.0
isoTOP-ABPP ratio O14980_C528 ([4]; 200 μM, insitu, 231): 0.8

Compound: CC(C)CCOCCNC(=O)CCl [compound 27]
isoTOP-ABPP ratio Q2NL82_C126 ([1]; 200 μM, insitu, 231): 0.4
isoTOP-ABPP ratio Q14980_C961 [7]: 2.4
isoTOP-ABPP ratio Q00765_C18 ([5]; 200 μM, insitu, 231): 1.1
isoTOP-ABPP ratio Q9NRW3_C130 ([2]; 200 μM, insitu, 231): 1.3
isoTOP-ABPP ratio P29590_C389 ([3]; 200 μM, insitu, 231): 0.5
reactivity profile of liganded cysteine P29590_C213 with fragment electrophile (isoTOP-ABPP ratio) ([3]; cysteine P29590_C213, fragment 200 μM, in situ, 231 (MDA-MB-231) cells): 0.8

Compound: O=C(CCl)Nc1cccc2ncccc12 [compound 51]
isoTOP-ABPP ratio Q2NL82_C126 ([1]; 200 μM, insitu, 231): 1.9
isoTOP-ABPP ratio P29590_C389 ([3]; 200 μM, insitu, 231): 0.9
isoTOP-ABPP ratio O14980_C528 ([4]; 200 μM, insitu, 231): 1.1

Results, then the compound that gave them:

isoTOP-ABPP reactivity Q00765_018 REEP5 ([5]; 200 μM, insitu, 231): 2.7
Compound: COc1cc2c(cc1OC)CN(C(=O)CCl)CC2 [compound 8]

isoTOP-ABPP ratio, cysteine Q2NL82_C126 ([1]; 200 μM, insitu, 231): 4.9
isoTOP-ABPP ratio Q00765_C18 ([5]; 200 μM, insitu, 231): 4.2
isoTOP-ABPP ratio P29590_C389 ([3]; 200 μM, insitu, 231): 7.9
isoTOP-ABPP ratio O14980_C528 ([4]; 200 μM, insitu, 231): 1.3
isoTOP-ABPP ratio O14980_C528 ([4]; 200 μM, insitu, ramos): 0.7
Compound: O=C(CCl)N1CCN(S(=O)(=O)c2ccccc2F)CC1 [compound 10]

isoTOP-ABPP ratio Q00765_C18 ([5]; 200 μM, insitu, ramos): 1.4
isoTOP-ABPP ratio Q9NRW3_C130 ([2]; 200 μM, insitu, ramos): 13.3
isoTOP-ABPP ratio O14980_C528 ([4]; 200 μM, insitu, ramos): 1.1
Compound: O=C(CCl)N1CCN(CC(=O)N2CCOCC2)CC1 [compound 29]

isoTOP-ABPP ratio Q14980_C961 [7]: 1.1
isoTOP-ABPP ratio Q15345_C297 ([6]; 200 μM, insitu, 231): 0.9
isoTOP-ABPP ratio P29590_C389 ([3]; 200 μM, insitu, 231): 1.1
Compound: C=CC(=O)N(Cc1cccnc1)c1cc(C(F)(F)F)cc(C(F)(F)F)c1 [compound 31]

isoTOP-ABPP ratio Q2NL82_C126 ([1]; 200 μM, insitu, 231): 0.9
isoTOP-ABPP ratio Q14980_C961 [7]: 2.6
isoTOP-ABPP ratio Q15345_C297 ([6]; 200 μM, insitu, 231): 1.4
isoTOP-ABPP ratio P29590_C389 ([3]; 200 μM, insitu, 231): 2.2
isoTOP-ABPP ratio O14980_C528 ([4]; 200 μM, insitu, 231): 2.1
Compound: C=CC(=O)Nc1cc(F)c(N2CCN(C(=O)OC(C)(C)C)CC2)c(F)c1 [compound 38]

isoTOP-ABPP ratio Q2NL82_C126 ([1]; 200 μM, insitu, 231): 0.8
isoTOP-ABPP ratio Q15345_C297 ([6]; 200 μM, insitu, 231): 0.8
isoTOP-ABPP ratio Q9NRW3_C130 ([2]; 200 μM, insitu, 231): 0.9
isoTOP-ABPP ratio P29590_C389 ([3]; 200 μM, insitu, 231): 0.4
isoTOP-ABPP ratio O14980_C528 ([4]; 200 μM, insitu, 231): 0.9
Compound: Cc1ccc(C=C(C#N)C(=O)NCCN2CCOCC2)cc1 [compound 41]

isoTOP-ABPP ratio Q2NL82_C126 ([1]; 200 μM, insitu, 231): 20.0
isoTOP-ABPP ratio Q00765_C18 ([5]; 200 μM, insitu, 231): 20.0
isoTOP-ABPP ratio Q9NRW3_C130 ([2]; 200 μM, insitu, 231): 20.0
isoTOP-ABPP ratio P29590_C389 ([3]; 200 μM, insitu, 231): 3.4
Compound: CC1CCc2ccccc2N1C(=O)CCl (stereo not drawn) [compound 45]
